Measurements as given in ChEMBL document CHEMBL4616654, “Irpexine, an Isoindolinone Alkaloid Produced by Coculture of Endophytic Fungi, Irpex lacteus and Phaeosphaeria oryzae” (J Nat Prod, 2020).
Active and inactive are the calls of the source.

Key:
Escherichia coli = assay: Antimicrobial activity against Escherichia coli at 50 uM; assay type: functional, organism-based
Bacillus cereus = assay: Antimicrobial activity against Bacillus cereus at 50 uM; assay type: functional, organism-based
HeLa = assay: Cytotoxicity against human HeLa cells at 50 uM; assay type: functional, cell-based
Candida albicans = assay: Antifungal activity against Candida albicans at 50 uM; assay type: functional, organism-based

Measured: Activity

CC(C)=CCc1ccc(O)c(C2c3c(O)cc(C(=O)O)cc3C(=O)N2CCO)c1O (stereo not drawn)
inactive: all assays above

O=c1c2cc3c(CO)cc4cc(O)cc(O)c4c3oc-2cc2cc(O)cc(O)c12
inactive: all assays above
